Tested on: 743489-274-T-PDC complex spheroid viability
Test: Anticancer human tumor 743489-274-T-PDC patient-derived renal cell carcinoma cell line growth inhibition
Conditions: for IC50: curve of first compound; for viability, T/C: stronger effect = lower value
Procedure, shortened: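 Complex spheroids of tumor cells with HUVEC and human MSCs, exposed to iadademstat combined with other agents. Each agent tested in half-log steps from near clinical Cmax (else 10 microM top), DMSO ≤0.25%.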

[1] = second compound 0.1 µM, first compound 0.00949 µM
[2] = second compound 0.1 µM, first compound 0.03 µM
[3] = second compound 0.1 µM, first compound 0.0949 µM
[4] = second compound 0.1 µM, first compound 0.3 µM
[5] = second compound 0.316 µM, first compound 0.00949 µM
[6] = second compound 0.316 µM, first compound 0.03 µM
[7] = second compound 0.316 µM, first compound 0.0949 µM
[8] = second compound 0.316 µM, first compound 0.3 µM
[9] = second compound 1 µM, first compound 0.00949 µM
[10] = second compound 1 µM, first compound 0.03 µM
[11] = second compound 1 µM, first compound 0.0949 µM
[12] = second compound 1 µM, first compound 0.3 µM
[13] = second compound 3.16 µM, first compound 0.00949 µM
[14] = second compound 3.16 µM, first compound 0.03 µM
[15] = second compound 3.16 µM, first compound 0.0949 µM
[16] = second compound 3.16 µM, first compound 0.3 µM
[17] = second compound 10 µM, first compound 0.00949 µM
[18] = second compound 10 µM, first compound 0.03 µM
[19] = second compound 10 µM, first compound 0.0949 µM
[20] = second compound 10 µM, first compound 0.3 µM
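Note: spheroids exposed to compounds for 7 days before readout.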
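Throughout, for viability, T/C: 100% = DMSO vehicle control wells.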

**Q.** Which IC50 (second compound 0.1 µM) does the source give for `Nc1ccccc1NC(=O)c1ccc(CNC(=O)OCc2cccnc2)cc1` + NC1CCC(NC2CC2c2ccccc2)CC1 here?
**A.** The IC50 was 0.932 µM.

**Q.** What about the IC50 (second compound 0.316 µM) of the same compound?
**A.** Its IC50 is over 3 µM.

**Q.** And the IC50 (second compound 1 µM)?
**A.** The IC50 was 1.43 µM.

**Q.** And the IC50 (second compound 3.16 µM)?
**A.** The IC50 was 1.78 µM.

**Q.** And the IC50 (second compound 10 µM)?
**A.** Its IC50 is 1.27 µM.

**Q.** What about the viability, T/C [1] of the same compound?
**A.** The viability, T/C was 96.2%.

**Q.** And the viability, T/C [2]?
**A.** The viability, T/C was 89.4%.

**Q.** What about the viability, T/C [3] of the same compound?
**A.** The viability, T/C was 83.7%.

**Q.** What about the viability, T/C [4] of the same compound?
**A.** Its viability, T/C is 85.4%.

**Q.** And the viability, T/C (second compound 0.1 µM, first compound 0.949 µM)?
**A.** The viability, T/C was 49.3%.

**Q.** And the viability, T/C (second compound 0.1 µM, first compound 3 µM)?
**A.** Its viability, T/C is 31.2%.

**Q.** And the viability, T/C [5]?
**A.** The viability, T/C was 116%.

**Q.** What about the viability, T/C [6] of the same compound?
**A.** The viability, T/C was 92.2%.

**Q.** What about the viability, T/C [7] of the same compound?
**A.** Its viability, T/C is 88.2%.

**Q.** And the viability, T/C [8]?
**A.** The viability, T/C was 82.8%.

**Q.** And the viability, T/C (second compound 0.316 µM, first compound 0.949 µM)?
**A.** The viability, T/C was 61.6%.

**Q.** What about the viability, T/C (second compound 0.316 µM, first compound 3 µM) of the same compound?
**A.** The viability, T/C was 52.8%.

**Q.** What about the viability, T/C [9] of the same compound?
**A.** The viability, T/C was 107%.

**Q.** What about the viability, T/C [10] of the same compound?
**A.** The viability, T/C was 94.8%.

**Q.** What about the viability, T/C [11] of the same compound?
**A.** The viability, T/C was 88.9%.

**Q.** What about the viability, T/C [12] of the same compound?
**A.** Its viability, T/C is 82.9%.

**Q.** And the viability, T/C (second compound 1 µM, first compound 0.949 µM)?
**A.** The viability, T/C was 54.4%.

**Q.** And the viability, T/C (second compound 1 µM, first compound 3 µM)?
**A.** Its viability, T/C is 36.2%.

**Q.** And the viability, T/C [13]?
**A.** The viability, T/C was 113%.

**Q.** What about the viability, T/C [14] of the same compound?
**A.** The viability, T/C was 97.4%.

**Q.** What about the viability, T/C [15] of the same compound?
**A.** The viability, T/C was 97%.

**Q.** And the viability, T/C [16]?
**A.** The viability, T/C was 80.5%.

**Q.** And the viability, T/C (second compound 3.16 µM, first compound 0.949 µM)?
**A.** The viability, T/C was 59.4%.

**Q.** What about the viability, T/C (second compound 3.16 µM, first compound 3 µM) of the same compound?
**A.** Its viability, T/C is 41%.

**Q.** What about the viability, T/C [17] of the same compound?
**A.** Its viability, T/C is 107%.

**Q.** What about the viability, T/C [18] of the same compound?
**A.** Its viability, T/C is 109%.

**Q.** What about the viability, T/C [19] of the same compound?
**A.** Its viability, T/C is 87.9%.

**Q.** What about the viability, T/C [20] of the same compound?
**A.** The viability, T/C was 79.8%.

**Q.** And the viability, T/C (second compound 10 µM, first compound 0.949 µM)?
**A.** Its viability, T/C is 57.1%.

**Q.** What about the viability, T/C (second compound 10 µM, first compound 3 µM) of the same compound?
**A.** The viability, T/C was 29.3%.

**Q.** Which results are given for `Nc1ccn(C2OC(CO)C(O)C2(F)F)c(=O)n1` (stereo not given) + NC1CCC(NC2CC2c2ccccc2)CC1?
**A.** IC50 (second compound 0.1 µM): > 0.3 µM; IC50 (second compound 0.316 µM): > 0.3 µM; IC50 (second compound 1 µM): > 0.3 µM; IC50 (second compound 3.16 µM): > 0.3 µM; IC50 (second compound 10 µM): > 0.3 µM; viability, T/C (second compound 0.1 µM, first compound 0.000949 µM): 77.8%; viability, T/C (second compound 0.1 µM, first compound 0.003 µM): 72.3%; viability, T/C [1]: 71.5%; viability, T/C [2]: 81.7%; viability, T/C [3]: 68.9%; viability, T/C [4]: 78.4%; viability, T/C (second compound 0.316 µM, first compound 0.000949 µM): 86.3%; viability, T/C (second compound 0.316 µM, first compound 0.003 µM): 80%; viability, T/C [5]: 74.6%; viability, T/C [6]: 79.2%; viability, T/C [7]: 73.2%; viability, T/C [8]: 69.6%; viability, T/C (second compound 1 µM, first compound 0.000949 µM): 68.5%; viability, T/C (second compound 1 µM, first compound 0.003 µM): 71.7%; viability, T/C [9]: 74.6%; viability, T/C [10]: 84.9%; viability, T/C [11]: 76.5%; viability, T/C [12]: 79.1%; viability, T/C (second compound 3.16 µM, first compound 0.000949 µM): 81.5%; viability, T/C (second compound 3.16 µM, first compound 0.003 µM): 80%; viability, T/C [13]: 85.2%; viability, T/C [14]: 78.8%; viability, T/C [15]: 76.4%; viability, T/C [16]: 68.8%; viability, T/C (second compound 10 µM, first compound 0.000949 µM): 91.7%; viability, T/C (second compound 10 µM, first compound 0.003 µM): 78.8%; viability, T/C [17]: 84.8%; viability, T/C [18]: 92.7%; viability, T/C [19]: 74.3%; viability, T/C [20]: 80.5%

**Q.** What does the source list for `O=C(c1cc(Cc2n[nH]c(=O)c3ccccc23)ccc1F)N1CCN(C(=O)C2CC2)CC1` + NC1CCC(NC2CC2c2ccccc2)CC1?
**A.** IC50 (second compound 0.1 µM): > 10 µM; IC50 (second compound 0.316 µM): > 10 µM; IC50 (second compound 1 µM): > 10 µM; IC50 (second compound 3.16 µM): > 10 µM; IC50 (second compound 10 µM): > 10 µM; viability, T/C (second compound 0.1 µM, first compound 0.0316 µM): 112%; viability, T/C (second compound 0.1 µM, first compound 0.1 µM): 111%; viability, T/C (second compound 0.1 µM, first compound 0.316 µM): 101%; viability, T/C (second compound 0.1 µM, first compound 1 µM): 101%; viability, T/C (second compound 0.1 µM, first compound 3.16 µM): 110%; viability, T/C (second compound 0.1 µM, first compound 10 µM): 106%; viability, T/C (second compound 0.316 µM, first compound 0.0316 µM): 104%; viability, T/C (second compound 0.316 µM, first compound 0.1 µM): 106%; viability, T/C (second compound 0.316 µM, first compound 0.316 µM): 120%; viability, T/C (second compound 0.316 µM, first compound 1 µM): 107%; viability, T/C (second compound 0.316 µM, first compound 3.16 µM): 124%; viability, T/C (second compound 0.316 µM, first compound 10 µM): 100%; viability, T/C (second compound 1 µM, first compound 0.0316 µM): 114%; viability, T/C (second compound 1 µM, first compound 0.1 µM): 100%; viability, T/C (second compound 1 µM, first compound 0.316 µM): 106%; viability, T/C (second compound 1 µM, first compound 1 µM): 110%; viability, T/C (second compound 1 µM, first compound 3.16 µM): 111%; viability, T/C (second compound 1 µM, first compound 10 µM): 108%; viability, T/C (second compound 3.16 µM, first compound 0.0316 µM): 117%; viability, T/C (second compound 3.16 µM, first compound 0.1 µM): 129%; viability, T/C (second compound 3.16 µM, first compound 0.316 µM): 120%; viability, T/C (second compound 3.16 µM, first compound 1 µM): 98.8%; viability, T/C (second compound 3.16 µM, first compound 3.16 µM): 100%; viability, T/C (second compound 3.16 µM, first compound 10 µM): 113%; viability, T/C (second compound 10 µM, first compound 0.0316 µM): 108%; viability, T/C (second compound 10 µM, first compound 0.1 µM): 116%; viability, T/C (second compound 10 µM, first compound 0.316 µM): 110%; viability, T/C (second compound 10 µM, first compound 1 µM): 119%; viability, T/C (second compound 10 µM, first compound 3.16 µM): 116%; viability, T/C (second compound 10 µM, first compound 10 µM): 89%

— PubChem BioAssay AID1918942 (Molecular Pharmacology Branch, DTP, NCI, 2023)
